Data from ChEMBL document CHEMBL1124853, “Synthesis and antiallergy activity of N-[2-(dimethylamino)ethyl]-4-aryl-1-piperazinecarboxamide derivatives” (1990).

Legend:
Rattus norvegicus [1] = test: Oral antiallergic activity in rat passive foot anaphylaxis (PFA) assay as percent change in volume of foot edema at a dose 31.6 mg/kg compared to -68% of aminophylline at 100 mg/kg; format: functional
Rattus norvegicus [2] = test: Oral antiallergic activity in rat passive foot anaphylaxis (PFA) assay as percent change in volume of foot edema at a dose 31.6 mg/kg compared to -65% of aminophylline at 100 mg/kg; format: functional
Rattus norvegicus [3] = test: Oral antiallergic activity in rat passive foot anaphylaxis (PFA) assay as percent change in volume of foot edema at a dose 10 mg/kg compared to -69% of aminophylline at 100 mg/kg; format: functional
Rattus norvegicus [4] = test: Oral antiallergic activity in rat passive foot anaphylaxis (PFA) assay as percent change in volume of foot edema at a dose 31.6 mg/kg compared to -64% of aminophylline at 100 mg/kg; format: functional
Rattus norvegicus [5] = test: Oral antiallergic activity in rat passive foot anaphylaxis (PFA) assay as percent change in volume of foot edema at a dose 31.6 mg/kg compared to -74% of aminophylline at 100 mg/kg; format: functional
Rattus norvegicus [6] = test: Oral antiallergic activity in rat passive foot anaphylaxis (PFA) assay as percent change in volume of foot edema at a dose 10 mg/kg compared to -62% of aminophylline at 100 mg/kg; format: functional
Rattus norvegicus [7] = test: Oral antiallergic activity in rat passive foot anaphylaxis (PFA) assay as percent change in volume of foot edema at a dose 31.6 mg/kg compared to -81% of aminophylline at 100 mg/kg; format: functional
Rattus norvegicus [8] = test: Oral antiallergic activity in rat passive foot anaphylaxis (PFA) assay as percent change in volume of foot edema at a dose 31.6 mg/kg compared to -63% of aminophylline at 100 mg/kg; format: functional
Rattus norvegicus [9] = test: Oral antiallergic activity in rat passive foot anaphylaxis (PFA) assay as percent change in volume of foot edema at a dose 31.6 mg/kg compared to -62% of aminophylline at 100 mg/kg; format: functional
Rattus norvegicus [10] = test: Oral antiallergic activity in rat passive foot anaphylaxis (PFA) assay as percent change in volume of foot edema at a dose 31.6 mg/kg compared to -71% of aminophylline at 100 mg/kg; format: functional
Rattus norvegicus [11] = test: Oral antiallergic activity in rat passive foot anaphylaxis (PFA) assay as percent change in volume of foot edema at a dose 31.6 mg/kg compared to -90% of aminophylline at 100 mg/kg; format: functional
Rattus norvegicus [12] = test: Oral antiallergic activity in rat passive foot anaphylaxis (PFA) assay as percent change in volume of foot edema at a dose 31.6 mg/kg compared to -80% of aminophylline at 100 mg/kg; format: functional
Rattus norvegicus [13] = test: Oral antiallergic activity in rat passive foot anaphylaxis (PFA) assay as percent change in volume of foot edema at a dose 31.6 mg/kg compared to -67% of aminophylline at 100 mg/kg; format: functional
Rattus norvegicus [14] = test: Oral antiallergic activity in rat passive foot anaphylaxis (PFA) assay as percent change in volume of foot edema at a dose 10 mg/kg compared to -76% of aminophylline at 100 mg/kg; format: functional
Cavia porcellus [15] = test: Oral antiallergic activity in the Guinea Pig Anaphylaxis (GPA) at the dose of 10 mg/kg; 4 guinea pigs were challenged with the antigen
Rattus norvegicus [16] = test: Oral antiallergic activity in rat passive foot anaphylaxis (PFA) assay as percent change in volume of foot edema at a dose 3.16 mg/kg compared to -84% of aminophylline at 100 mg/kg
Rattus norvegicus [17] = test: Oral antiallergic activity in rat passive foot anaphylaxis (PFA) assay as percent change in volume of foot edema at a dose 10 mg/kg compared to -77% of aminophylline at 100 mg/kg; format: functional
Cavia porcellus [18] = test: Oral antiallergic activity in the Guinea Pig Anaphylaxis (GPA) at the dose of 31.6 mg/kg; 4 guinea pigs were challenged with the antigen
Cavia porcellus [19] = test: Oral antiallergic activity in the Guinea Pig Anaphylaxis (GPA) at the dose of 31.6 mg/kg; 6 guinea pigs were challenged with the antigen; format: functional
Cavia porcellus [20] = test: Oral antiallergic activity in the Guinea Pig Anaphylaxis (GPA) at the dose of 200 mg/kg; 3 guinea pigs were challenged with the antigen; format: functional

CN(C)CCNC(=O)N1CCN(c2ccccc2F)CC1
Change (Rattus norvegicus [1]): -37%

CN(C)CCNC(=O)N1CCN(c2ccccn2)CC1
Change (Rattus norvegicus [2]): -54% | Change (Rattus norvegicus [3]): -13%

CN(C)CCNC(=O)N1CCN(c2cccc(F)c2)CC1
Change (Rattus norvegicus [4]): -31%

O=C(NCCN1CCCCC1)N1CCN(c2ccccc2)CC1
Change (Rattus norvegicus [1]): -49%

O=C(NCCc1ccccn1)N1CCN(c2ccccc2)CC1
Change (Rattus norvegicus [5]): -3%

COc1ccccc1N1CCN(C(=O)NCCN(C)C)CC1
Change (Rattus norvegicus [5]): -21%

NC(=O)N1CCN(c2ccccc2)CC1
Change (Rattus norvegicus [5]): 10%

COc1cccc(N2CCN(C(=O)NCCN(C)C)CC2)c1
Change (Rattus norvegicus [2]): -67% | Change (Rattus norvegicus [6]): -36%

CN1CCN(CCCNC(=O)N2CCN(c3ccccc3)CC2)CC1
Change (Rattus norvegicus [7]): -23%

CN1CCN(CCNC(=O)N2CCN(c3ccccc3)CC2)CC1
Change (Rattus norvegicus [8]): -7%

COc1cc(N2CCN(C(=O)NCCN(C)C)CC2)cc(OC)c1OC
Change (Rattus norvegicus [9]): 9%

CC(=O)c1ccc(N2CCN(C(=O)NCCN(C)C)CC2)cc1
Change (Rattus norvegicus [10]): -25%

CN(C)CCNC(=O)N1CCN(c2ccccc2Cl)CC1
Change (Rattus norvegicus [2]): -53% | Change (Rattus norvegicus [3]): -16%

CN(C)CCNC(=O)N1CCN(c2ccccc2)CC1
Change (Rattus norvegicus [11]): -68% | Change (Rattus norvegicus [3]): -22%

CN(C)C(=O)N1CCN(c2ccccc2)CC1
Change (Rattus norvegicus [10]): -24%

CN(C)CCNC(=O)N1CCN(c2ccc(C(N)=O)cc2)CC1
Change (Rattus norvegicus [12]): 0%

CN(C)CCNC(=O)N1CCN(c2ccc(F)cc2)CC1
Change (Rattus norvegicus [13]): -87% | Change (Rattus norvegicus [14]): -63% | No. of guinea pigs protected (Cavia porcellus [15]): 1 | Change (Rattus norvegicus [16]): -35%

CN(C)CCNC(=O)N1CCN(c2cccc(Cl)c2)CC1
Change (Rattus norvegicus [13]): -78% | Change (Rattus norvegicus [17]): -32%

COc1ccc(N2CCN(C(=O)NCCN(C)C)CC2)cc1
Change (Rattus norvegicus [2]): -49% | Change (Rattus norvegicus [3]): -29%

Cc1ccc(N2CCN(C(=O)NCCN(C)C)CC2)cc1
Change (Rattus norvegicus [2]): -46%

CN(C)CCCNC(=O)N1CCN(c2ccccc2)CC1
Change (Rattus norvegicus [5]): -13%

CN(C)CCNC(=O)N1CCN(c2ccc(Cl)cc2)CC1
Change (Rattus norvegicus [9]): 27% | Change (Rattus norvegicus [2]): -61% | Change (Rattus norvegicus [6]): -48% | No. of guinea pigs protected (Cavia porcellus [18]): 0

Cn1c(=O)c2[nH]cnc2n(C)c1=O.Cn1c(=O)c2[nH]cnc2n(C)c1=O.NCCN [AMINOPHYLLINE]
No. of guinea pigs protected (Cavia porcellus [19]): 4

CCN(CC)C(=O)N1CCN(C)CC1 [DIETHYLCARBAMAZINE]
No. of guinea pigs protected (Cavia porcellus [20]): 0

CN(C)CCOC(c1ccccc1)c1ccccc1 [DIPHENHYDRAMINE]
No. of guinea pigs protected (Cavia porcellus [18]): 1
